We go through 19 compounds from patent US20140187559A1, “INHIBITORS OF THE FIBROBLAST GROWTH FACTOR RECEPTOR” (BLUEPRINT MEDICINES CORPORATION, priority 2012, published 2014).

One data set concerns the target T1, wild type FGFR-4 (Homo sapiens, UniProt P22455).
T1 construct: purchased Carna Biosciences, Inc
Briefly: FGFR-4 wild type assay at Km (Caliper mobility shift). The class given is biochemical. As to conditions: for IC50: 400 uM ATP, 25 C, 90 minutes, read-out: FGFR4 IC50; for Ratio FGFR1/FGFR4: [IC50 for FGFR1]/[IC50 for FGFR4]. How it is done:
(§1) In order to assess the activity of chemical compounds against the relevant kinase of interest, the Caliper LifeSciences electrophoretic mobility shift technology platform is utilized. Fluorescently labeled substrate peptide is incubated in the presence dosed levels of compounds, a set concentration of kinase and of ATP, so that a reflective proportion of the peptide is phosphorylated. At the end of the reaction, the mix of phosphorylated (product) and non-phosphorylated (substrate) peptides are passed through the microfluidic system of the Caliper LabChip® EZ Reader II, under an applied potential difference. The presence of the phosphate group on the product peptide provides a difference in mass and charge between the product peptide and the substrate peptide, resulting in a separation of the substrate and product pools in the sample. As the pools pass the LEDS within the instrument, these pools are detected and resolved as separate peaks. The ratio between these peaks therefore reflects the activity of the chemical matter at that concentration in that well, under those conditions.
The reaction was stopped by the addition of 70 ul of Stop buffer (100 mM HEPES pH 7.5, 0.015% Brij 35, 35 mM EDTA and 0.2% of Coating Reagent 3 (Caliper Lifesciences)). The plate was then read on a Caliper LabChip® EZ Reader II (protocol settings: —1.9 psi, upstream voltage—700, downstream voltage—3000, post sample sip 35 s).

A further data set concerns the target T2, wild type FGFR-1 (Homo sapiens, UniProt P11362).
T2 construct: purchased Carna Biosciences, Inc
Put plainly: FGFR-1 wild type assay at Km (Caliper mobility shift). The class given is biochemical. As to conditions: 400 uM ATP, 25 C, 90 minutes; read-out: FGFR1 IC50. How it is done: as §1
The reaction was stopped by the addition of 70 ul of Stop buffer (100 mM HEPES pH 7.5, 0.015% Brij 35, 35 mM EDTA and 0.2% of Coating Reagent 3 (Caliper Lifesciences)). The plate was then read on a Caliper EZReader 2 (protocol settings: —1.9 psi, upstream voltage—700, downstream voltage—3000, post sample sip 35 s).

The test system of the next data set is Hep3B xenograft tumors. Put plainly: Hep3B liver cancer cell subcutaneous xenograft model, tumor volume. The class given is in vivo, Mus Musculus. The protocol: […] female nude mice (Mus Musculus) age 6 to 8 weeks were used. Tumor cell culture and inoculation: Hep3B cells were cultured with EMEM medium (Invitrogen, USA) supplemented with 10% FBS (Gibco, Australia). The cells were harvested in 90% confluence, and the viability was no less than 90%. Mice were implanted subcutaneously (s.c.) with 200 μL of 10×10^6 Hep3B cells in 50% Matrigel in the right flank at the beginning of the study.
Animal grouping and dosing schedule: Ten days after cell implantation, when tumors reached an average volume of 199 mm^3, 45 mice were selected based on tumor volume and randomly assigned to 5 treatment groups (n=9). The day of randomization was denoted as D0 and the treatment was started from then on.
(§2) Tumor volume and body weight measurements: Tumor size was measured twice per week in two dimensions using a caliper, and the volume was expressed in mm^3 using the formula: V=0.5 a×b^2 where a and b were the long and short diameters of the tumor, respectively. Body weight was measured at least twice weekly.
End of in vivo portion: Blood, tumors and livers were collected from 3 mice in each treated group at 4, 12 and 24 hours after the last dose. The left lobe of the liver was collected for pharmacodynamic (PD) studies, and the rest of the liver was stored in formalin for histology. The small tumors were prioritized for use in pharmacokinetic studies. Any remaining tumor was fixed for histological analysis first, and then was snap-frozen for the PD study.

Another data set has as its target FGFR-4 (Homo sapiens, UniProt P22455). Briefly: Crystal structure of compound bound to FGFR-4 (Cys552). The format is binding. The conditions noted are these: FIG. 4, FIG. 5.
The test system of the next data set is Hep3B cells. Briefly: Induction of apoptosis (Caspase-Glo3/7) in Hep3B cells. As to conditions: 6 hours, FIG. 3. The class given is cell-based. How it is done: Hep3B cells were seeded at 20 k/well in 96-well white plates in 200 ul of DMEM/5% FBS overnight. The next day compound was added at a final DMSO concentration of 0.1% and incubated for 6 hours. Caspase activity was measured according to manufacture instruction (Caspase-Glo3/7 Assay (Promega)). Briefly, 100 ul of Caspase-Glo3/7 reagent was added to each well and incubated for 1 hour in the dark. Luminescence was measured using EnVision.

Data set [1] is classed as in vivo. The conditions noted are these: 100 and 300 mg/kg PO BID, nude mice. The protocol:
as §2
Body weight change (%) of Hep3B-bearing nude mice: FIG. 8 is a line graph depicting the body weight change (%) during the entire study period.

Usually IC50 stands for the concentration that gives 50% inhibition.

T1 sequence (P22455 22-802): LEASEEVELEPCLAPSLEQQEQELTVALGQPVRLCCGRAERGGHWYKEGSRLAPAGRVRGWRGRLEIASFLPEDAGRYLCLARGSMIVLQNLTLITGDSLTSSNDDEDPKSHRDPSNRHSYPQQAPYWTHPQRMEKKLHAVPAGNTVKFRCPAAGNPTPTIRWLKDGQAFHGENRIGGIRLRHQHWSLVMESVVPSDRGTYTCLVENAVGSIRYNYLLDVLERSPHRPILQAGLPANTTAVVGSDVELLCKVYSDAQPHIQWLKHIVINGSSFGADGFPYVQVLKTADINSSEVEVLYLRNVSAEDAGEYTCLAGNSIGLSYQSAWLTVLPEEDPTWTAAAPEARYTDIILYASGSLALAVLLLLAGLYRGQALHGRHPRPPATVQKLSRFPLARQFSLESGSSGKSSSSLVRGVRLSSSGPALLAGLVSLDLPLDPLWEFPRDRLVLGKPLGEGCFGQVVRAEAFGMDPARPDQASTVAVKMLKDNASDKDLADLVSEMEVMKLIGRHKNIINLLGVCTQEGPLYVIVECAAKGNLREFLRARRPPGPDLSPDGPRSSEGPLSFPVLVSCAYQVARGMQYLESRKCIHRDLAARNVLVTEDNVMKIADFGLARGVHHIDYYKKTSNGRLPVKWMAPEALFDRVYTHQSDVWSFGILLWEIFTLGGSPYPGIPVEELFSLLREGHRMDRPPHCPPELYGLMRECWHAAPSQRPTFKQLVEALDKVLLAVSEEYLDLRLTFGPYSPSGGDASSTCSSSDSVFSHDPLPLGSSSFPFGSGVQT
T2 sequence (P11362 22-822): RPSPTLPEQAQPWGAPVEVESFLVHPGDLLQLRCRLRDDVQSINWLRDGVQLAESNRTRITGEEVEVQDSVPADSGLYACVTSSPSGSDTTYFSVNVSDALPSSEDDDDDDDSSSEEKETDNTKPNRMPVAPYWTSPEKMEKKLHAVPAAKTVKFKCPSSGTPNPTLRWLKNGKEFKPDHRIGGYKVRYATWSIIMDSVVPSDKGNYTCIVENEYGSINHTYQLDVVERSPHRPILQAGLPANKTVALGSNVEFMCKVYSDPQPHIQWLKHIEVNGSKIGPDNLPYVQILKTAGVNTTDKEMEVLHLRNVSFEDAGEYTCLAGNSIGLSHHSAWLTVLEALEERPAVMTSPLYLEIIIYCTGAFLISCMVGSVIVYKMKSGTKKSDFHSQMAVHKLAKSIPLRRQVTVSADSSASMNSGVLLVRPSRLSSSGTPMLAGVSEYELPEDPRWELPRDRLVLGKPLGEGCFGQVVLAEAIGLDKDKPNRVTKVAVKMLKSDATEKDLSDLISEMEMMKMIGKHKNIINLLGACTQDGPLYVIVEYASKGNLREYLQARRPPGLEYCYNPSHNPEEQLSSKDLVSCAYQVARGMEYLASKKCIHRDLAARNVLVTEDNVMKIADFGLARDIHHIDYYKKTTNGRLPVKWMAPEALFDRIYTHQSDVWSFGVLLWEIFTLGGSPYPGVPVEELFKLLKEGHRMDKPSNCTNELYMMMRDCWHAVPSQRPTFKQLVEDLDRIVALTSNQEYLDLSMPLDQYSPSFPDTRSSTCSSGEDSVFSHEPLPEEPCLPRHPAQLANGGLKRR
Sequence of FGFR-4 (P22455 22-802): as the sequence (P22455 22-802) above

Regarding `C=CC(=O)Nc1ccccc1-c1ccn2c(-c3cc(NC(=O)NCC(F)(F)F)cc(OC(C)C)c3)cnc2c1` [COMPOUND 38, N-(2-(3-(3-isopropoxy-5-(3-(2,2,2-trifluoroethyl)ureido)phenyl)imidazo[1,2-a]pyridin-7-yl)phenyl)acrylamide], at wild type FGFR-4, the IC50 is 100 to 1000 nM; the “Ratio FGFR1/FGFR4” value was “E (the ratio is ≧10 and <50)”. For the same compound, the concentration for half-maximal inhibition (IC50) at wild type FGFR-1 is greater than 1000 nM.

For `C=CC(=O)Nc1ccccc1Nc1nccc(N2CCN(C(=O)Nc3ccc(C#N)cc3)CC2)n1` [COMPOUND 23], at wild type FGFR-4, the IC50 lay in the range of 100 to 1000 nM and the “Ratio FGFR1/FGFR4” value is listed as “A (the ratio is >500)”. The IC50 at wild type FGFR-1 is greater than 1000 nM.

Turning to `C=CS(=O)(=O)Nc1cccc(C)c1Nc1ncc2cc(-c3c(Cl)c(OC)cc(OC)c3Cl)ccc2n1` [COMPOUND 49A], the IC50 lay within 10 to 100 nM at wild type FGFR-4 and 100 to 1000 nM at wild type FGFR-1. The “Ratio FGFR1/FGFR4” value at wild type FGFR-4 was “E (the ratio is ≧10 and <50)”.

As for `C=CC(=O)N(C)c1ncc2cc(-c3cc(OC)cc(OC)c3)c(=O)n(C)c2n1` [COMPOUND 3], at wild type FGFR-4, the IC50 was 10 to 100 nM and the “Ratio FGFR1/FGFR4” value is listed as “A (the ratio is >500)”. Also, at wild type FGFR-1, the IC50 is greater than 1000 nM.

Consider `C=CC(=O)Nc1cccc(F)c1Nc1ncc2cc(-c3c(Cl)c(OC)cc(OC)c3Cl)cc(OC)c2n1` [COMPOUND 47], for which, at wild type FGFR-4, the “Ratio FGFR1/FGFR4” value was “B (the ratio is ≧200 and <500)”. In addition, the IC50 on wild type FGFR-1 was in the range of 10 to 100 nM.

As to `CNC(=O)c1cc(Oc2ccc(NC(=O)Nc3ccc(Cl)c(C(F)(F)F)c3)cc2)ccn1` [Sorafenib, reference compound], the “tumor volume compared with vehicle group” value in the data set with Hep3B xenograft tumors (30 mg/kg PO QD, Day 4 to Day 19) is reported as “Statistically significant reduction of tumor volumes”.

As for `C=CC(=O)N(CCCCN(CC)CC)c1ncc2cc(-c3cc(OC)cc(OC)c3)c(NC(=O)NC(C)(C)C)nc2n1` [COMPOUND 52, N-(7-(3-(tert-butyl)ureido)-6-(3,5-dimethoxyphenyl)pyrido[2,3-d]pyrimidin-2-yl)-N-(4-(diethylamino)butyl)acrylamide], the “Ratio FGFR1/FGFR4” value on wild type FGFR-4 was “C (the ratio is ≧100 and <200)”. Further, the IC50 on wild type FGFR-1 was in the range of 10 to 100 nM. For the same compound, the “binding site in crystal structure” value on FGFR-4 is on record as “binds to the cysteine at residue 552 of FGFR-4”.

Take `C=CC(=O)Nc1cccc(F)c1Nc1cc2c(cn1)cc(-c1c(Cl)c(OC)cc(OC)c1Cl)c(=O)n2C` [COMPOUND 46]: the “Ratio FGFR1/FGFR4” value at wild type FGFR-4 was “E (the ratio is ≧10 and <50)”. The IC50 on wild type FGFR-1 was 100 to 1000 nM.

In the case of `C=CC(=O)Nc1ccccc1Nc1cc2c(cn1)cc(-c1c(Cl)c(OC)cc(OC)c1Cl)c(=O)n2C` [COMPOUND 31], the “Ratio FGFR1/FGFR4” value at wild type FGFR-4 is “B (the ratio is ≧200 and <500)”. In addition, the IC50 on wild type FGFR-1 is 10 to 100 nM.

With `C=CC(=O)Nc1cccc(F)c1Nc1ncc2cc(-c3c(Cl)c(OC)cc(OC)c3Cl)ccc2n1` [COMPOUND 27], the “Ratio FGFR1/FGFR4” value at wild type FGFR-4 was “C (the ratio is ≧100 and <200)”. Moreover, the 50% inhibitory concentration (IC50) on wild type FGFR-1 was 10 to 100 nM.

As to `C=CC(=O)N(C)c1ncc2cc(-c3c(Cl)c(OC)cc(OC)c3Cl)cnc2n1` [COMPOUND 8], on wild type FGFR-4, the “Ratio FGFR1/FGFR4” value was “E (the ratio is ≧10 and <50)”. Besides, the concentration for half-maximal inhibition (IC50) at wild type FGFR-1 lay within 100 to 1000 nM.

For `C=CC(=O)N(C)c1ncc2nc(-c3cc(OC)cc(OC)c3)c(=O)n(C)c2n1` [COMPOUND 4], at wild type FGFR-4, the IC50 lay within 100 to 1000 nM; the “Ratio FGFR1/FGFR4” value is “B (the ratio is ≧200 and <500)”. The IC50 on wild type FGFR-1 was greater than 1000 nM.

Take `C=CC(=O)Nc1cccc(C)c1Nc1ncc2c(n1)N(C)C(=O)N(c1c(Cl)c(OC)cc(OC)c1Cl)C2` [COMPOUND 48, N-(2-((6-(2,6-dichloro-3,5-dimethoxyphenyl)-8-methyl-7-oxo-5,6,7,8-tetrahydropyrimido[4,5-d]pyrimidin-2-yl)amino)-3-methylphenyl)acrylamide]: the “Ratio FGFR1/FGFR4” value at wild type FGFR-4 was “E (the ratio is ≧10 and <50)”. Besides, the IC50 on wild type FGFR-1 fell in the range of 100 to 1000 nM.

`C=CC(=O)N(C)c1ncc2c(n1)N(C)C(=O)N(c1c(Cl)c(OC)cc(OC)c1Cl)C2` [COMPOUND 14]: the 50% inhibitory concentration (IC50) on wild type FGFR-4 is 10 to 100 nM; on wild type FGFR-1, 100 to 1000 nM.

Regarding `C=CC(=O)Nc1cccc(C)c1Nc1ncc2cc(-c3c(Cl)c(OC)cc(OC)c3Cl)ccc2n1` [COMPOUND 25, N-(2-((6-(2,6-dichloro-3,5-dimethoxyphenyl)quinazolin-2-yl)amino)-3-methylphenyl)acrylamide], the IC50 at wild type FGFR-1 fell in the range of 100 to 1000 nM. Further, in the data set with Hep3B cells, the “induction of apoptosis (Caspase activity)” value is recorded as “potent induction of apoptosis”. Further, the tumor regression result is reported as “regressed” in the data set with Hep3B xenograft tumors (100 mg/kg PO BID) and “almost disappeared” in the data set with Hep3B xenograft tumors (300 mg/kg PO BID). Besides, the “tumor volume compared with vehicle group” value in the data set on Hep3B xenograft tumors (100 mg/kg PO BID, Day 4 to Day 19) is recorded as “Statistically significant reduction of tumor volumes”; in the data set with Hep3B xenograft tumors (300 mg/kg PO BID, Day 4 to Day 19), “Statistically significant reduction of tumor volumes”. The “tolerability (body weight change)” value in data set [1] is “well tolerated”.

For `C=CC(=O)Nc1cccc(C(F)(F)F)c1Nc1ncc2cc(-c3c(Cl)c(OC)cc(OC)c3Cl)ccc2n1` [COMPOUND 51], at wild type FGFR-4, the IC50 is 10 to 100 nM and the “Ratio FGFR1/FGFR4” value was “F (the ratio of [IC50 for FGFR1]/[IC50 for FGFR4] is less than 10)”. For the same compound, the IC50 on wild type FGFR-1 was greater than 1000 nM.

In the case of `C=CC(=O)Nc1cc(N2CCOCC2)cc(C)c1Nc1ncc2cc(-c3c(Cl)c(OC)cc(OC)c3Cl)ccc2n1` [COMPOUND 53], the “Ratio FGFR1/FGFR4” value at wild type FGFR-4 is “C (the ratio is ≧100 and <200)”. Further, the IC50 at wild type FGFR-1 lay within 100 to 1000 nM.

With `CCN1CCN(c2ccc(Nc3cc(N(C)C(=O)Nc4c(Cl)c(OC)cc(OC)c4Cl)ncn3)cc2)CC1` [BGJ398, reference compound], the “induction of apoptosis (Caspase activity)” value with Hep3B cells is “induction of apoptosis, although at a higher concentration”. In addition, the “tumor volume compared with vehicle group” value with Hep3B xenograft tumors (20 mg/kg PO QD, entire study) is “significant difference in tumor volume between BGJ398 (20 mg/kg PO QD) and vehicle groups was not observed”.

For the compound `C=CC(=O)N(C)c1ncc2cc(-c3c(Cl)c(OC)cc(OC)c3Cl)c(=O)n(C)c2n1` [COMPOUND 12], the “Ratio FGFR1/FGFR4” value at wild type FGFR-4 was “D (the ratio is ≧50 and <100)”. The 50% inhibitory concentration (IC50) on wild type FGFR-1 lay in the range of 10 to 100 nM.
